In patent publication US8697739B2, “Bicyclic acetyl-CoA carboxylase inhibitors and uses thereof” (Novartis AG, priority 2010, dated 2014):

target: T1, human acetyl-CoA carboxylase 2 (ACC2) (Homo sapiens, UniProt O00763); test: Acetyl-CoA carboxylase enzyme assay (malonyl-CoA formation by LC/MS/MS); type: biochemical; details: recombinant human ACC2 (aa 144-2458); read-out: IC50 ACC2
T1 construct: The cDNA encoding amino acids 144 to 2458 of human acetyl-CoA carboxylase 2; made in house; host or cells: Sf9 insect cells (baculovirus, pFastBac1)
Procedure, shortened: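 Malonyl-CoA formation was read by LC/MS/MS MRM against a [13C3]-malonyl-CoA internal standard, after acetic acid quench. The enzyme was baculovirus/Sf9-expressed human ACC2 residues 144–2458, given 15 minutes room-temperature compound preincubation in HEPES pH 7.5 buffer with MgCl2, citrate and DTT. Substrate solution held 50 μM acetyl-CoA, 120 μM ATP and 2 mM KHCO3.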

T1 sequence (O00763 144-2458): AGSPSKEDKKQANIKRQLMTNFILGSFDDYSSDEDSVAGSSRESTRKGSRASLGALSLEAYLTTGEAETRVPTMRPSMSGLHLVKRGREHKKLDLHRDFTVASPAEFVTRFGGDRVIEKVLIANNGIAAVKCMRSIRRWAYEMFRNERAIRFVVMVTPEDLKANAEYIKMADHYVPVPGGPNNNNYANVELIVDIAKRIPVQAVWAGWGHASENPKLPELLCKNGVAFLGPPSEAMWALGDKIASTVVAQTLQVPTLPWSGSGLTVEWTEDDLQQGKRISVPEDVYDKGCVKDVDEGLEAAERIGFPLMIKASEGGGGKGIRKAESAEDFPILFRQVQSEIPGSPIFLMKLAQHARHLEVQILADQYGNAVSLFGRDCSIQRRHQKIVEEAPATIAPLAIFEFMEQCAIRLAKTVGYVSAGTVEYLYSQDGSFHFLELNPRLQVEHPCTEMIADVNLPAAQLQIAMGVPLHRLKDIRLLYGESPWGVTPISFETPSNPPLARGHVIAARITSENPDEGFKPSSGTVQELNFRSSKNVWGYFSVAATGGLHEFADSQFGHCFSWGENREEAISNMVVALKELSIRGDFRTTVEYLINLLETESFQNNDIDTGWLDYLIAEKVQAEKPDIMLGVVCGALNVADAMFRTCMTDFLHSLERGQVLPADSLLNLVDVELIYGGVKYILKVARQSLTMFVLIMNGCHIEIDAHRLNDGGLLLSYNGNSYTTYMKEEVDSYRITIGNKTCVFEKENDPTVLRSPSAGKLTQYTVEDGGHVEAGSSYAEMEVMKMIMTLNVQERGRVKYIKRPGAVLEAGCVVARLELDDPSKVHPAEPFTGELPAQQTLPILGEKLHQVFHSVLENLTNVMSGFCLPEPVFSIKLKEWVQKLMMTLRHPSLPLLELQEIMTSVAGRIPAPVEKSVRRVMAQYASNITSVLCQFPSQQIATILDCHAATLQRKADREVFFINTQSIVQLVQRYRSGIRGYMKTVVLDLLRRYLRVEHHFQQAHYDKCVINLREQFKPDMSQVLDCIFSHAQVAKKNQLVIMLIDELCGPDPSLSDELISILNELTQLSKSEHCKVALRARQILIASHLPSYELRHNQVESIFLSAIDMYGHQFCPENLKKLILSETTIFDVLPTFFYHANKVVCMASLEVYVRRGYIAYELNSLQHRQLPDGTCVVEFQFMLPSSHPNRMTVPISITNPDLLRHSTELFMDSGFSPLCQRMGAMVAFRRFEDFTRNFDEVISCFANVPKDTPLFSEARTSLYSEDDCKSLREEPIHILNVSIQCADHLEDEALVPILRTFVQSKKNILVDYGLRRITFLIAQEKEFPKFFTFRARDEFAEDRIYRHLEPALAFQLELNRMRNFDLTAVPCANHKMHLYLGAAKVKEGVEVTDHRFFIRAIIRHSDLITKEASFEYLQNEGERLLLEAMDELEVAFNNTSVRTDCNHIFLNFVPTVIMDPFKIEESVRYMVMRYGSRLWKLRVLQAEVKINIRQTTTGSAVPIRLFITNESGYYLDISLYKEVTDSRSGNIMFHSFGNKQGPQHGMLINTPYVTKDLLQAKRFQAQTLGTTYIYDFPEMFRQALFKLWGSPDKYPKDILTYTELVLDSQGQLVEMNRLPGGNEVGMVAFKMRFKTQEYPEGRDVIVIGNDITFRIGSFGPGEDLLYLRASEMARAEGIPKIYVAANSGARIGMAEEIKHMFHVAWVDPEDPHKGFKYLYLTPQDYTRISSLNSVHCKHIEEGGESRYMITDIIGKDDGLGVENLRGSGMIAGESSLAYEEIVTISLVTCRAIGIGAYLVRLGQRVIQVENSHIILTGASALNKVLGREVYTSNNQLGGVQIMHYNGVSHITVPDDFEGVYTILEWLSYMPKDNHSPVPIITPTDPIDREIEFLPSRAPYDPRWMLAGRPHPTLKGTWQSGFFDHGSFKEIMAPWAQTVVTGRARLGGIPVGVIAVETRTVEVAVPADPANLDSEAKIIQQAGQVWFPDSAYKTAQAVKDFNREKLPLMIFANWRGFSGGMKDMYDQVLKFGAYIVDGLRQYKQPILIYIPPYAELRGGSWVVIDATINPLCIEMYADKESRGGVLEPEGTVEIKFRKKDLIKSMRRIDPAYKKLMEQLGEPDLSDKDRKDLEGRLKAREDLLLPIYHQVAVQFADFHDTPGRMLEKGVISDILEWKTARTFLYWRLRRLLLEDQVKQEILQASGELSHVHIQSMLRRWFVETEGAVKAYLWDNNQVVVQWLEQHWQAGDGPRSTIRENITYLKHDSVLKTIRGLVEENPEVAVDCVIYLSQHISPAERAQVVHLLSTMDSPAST

Q: With CN1CCN(c2ccc3cc(S(=O)(=O)NC4CCC(C(=O)N5CCNCC5c5ccccc5)CC4)ccc3n2)CC1 (centres unmarked) [Example 259, 2-(4-methylpiperazin-1-yl)-N-((1r,4r)-4-(2-phenylpiperazine-1-carbonyl)cyclohexyl)quinoline-6-sulfonamide] as the compound, how does the IC50 read?
A: Its IC50 is 450 nM.

Q: With COC(=O)N1CCNc2ccc(S(=O)(=O)NC3CCC(C(=O)NC(C)c4ccc(F)cc4)CC3)cc21 [Example 221, methyl 7-(N-((1R,4r)-4-((R)-1-(4-fluorophenyl)ethylcarbamoyl)cyclohexyl)sulfamoyl)-3,4-dihydroquinoxaline-1(2H)-carboxylate] as the compound, how does the IC50 read?
A: The IC50 was under 10 nM.

Q: C[C@@H](NC(=O)[C@H]1CC[C@H](NS(=O)(=O)c2ccc3c(ccn3C)c2)CC1)c1ccc(F)cc1 [Example 12, (1r,4R)—N—((R)-1-(4-fluorophenyl)ethyl)-4-(1-methyl-1H-indole-5-sulfonamido)cyclohexanecarboxamide] was tested. Which IC50 did it give?
A: Its IC50 is 55 nM.

Q: COC(=O)C(C)(C)[C@@H](NC(=O)[C@H]1CC[C@H](NS(=O)(=O)c2ccc3cc(C4CC4)n(C)c3c2)CC1)c1ccccc1 [Example 396, (S)-methyl 3-((1r,4S)-4-(2-cyclopropyl-1-methyl-1H-indole-6-sulfonamido)cyclohexanecarboxamido)-2,2-dimethyl-3-phenylpropanoate] was tested. Which IC50 did it give?
A: Its IC50 is 10 nM.

Q: C[C@@H](NC(=O)[C@H]1CC[C@H](NS(=O)(=O)c2ccc3nc(NCCC(=O)O)ccc3c2)CC1)c1ccc(F)cc1 [Example 203, 3-(6-(N-((1R,4r)-4-((R)-1-(4-fluorophenyl)ethylcarbamoyl)cyclohexyl)sulfamoyl)quinolin-2-ylamino)propanoic acid] was tested. Which IC50 did it give?
A: Its IC50 is 305 nM.

Q: For O=C(NCc1cccnc1)[C@H]1CC[C@H](NS(=O)(=O)c2ccc3[nH]c(-c4ccccc4)nc3c2)CC1 [Example 640, (1r,4r)-4-(2-phenyl-1H-benzo[d]imidazole-5-sulfonamido)-N-(pyridin-3-ylmethyl)cyclohexanecarboxamide], which IC50 is on record?
A: The IC50 was 960 nM.

Q: With C[C@@H](NC(=O)[C@H]1CC[C@H](NS(=O)(=O)c2ccc3c(c2)N(C)CCO3)CC1)c1ccc(F)cc1 [Example 157, (1r,4R)-N-((R)-1-(4-fluorophenyl)ethyl)-4-(4-methyl-3,4-dihydro-2H-benzo[b][1,4]oxazine-6-sulfonamido)cyclohexanecarboxamide] as the compound, how does the IC50 read?
A: The IC50 was 38 nM.

Q: With O=C(O)[C@@H]1CCCN(C(=O)[C@H]2CC[C@H](NS(=O)(=O)c3ccc4ccccc4c3)CC2)C1 [Example 163, (R)-1-((1r,4R)-4-(naphthalene-2-sulfonamido)cyclohexanecarbonyl)piperidine-3-carboxylic acid] as the compound, how does the IC50 read?
A: The IC50 was 8520 nM.

Q: Which IC50 does the source give for COc1ccc(Nc2nc3cc(S(=O)(=O)N[C@H]4CC[C@H](c5nnc(C(C)(C)C)o5)CC4)ccc3[nH]2)cc1 [Example 596, N-((1r,4r)-4-(5-tert-butyl-1,3,4-oxadiazol-2-yl)cyclohexyl)-2-(4-methoxyphenylamino)-1H-benzo[d]imidazole-5-sulfonamide] here?
A: Its IC50 is 180 nM.

Q: How did the IC50 turn out when CCOc1ccc2cc(S(=O)(=O)N[C@H]3CC[C@H](C(=O)N[C@H](COP(=O)(O)O)c4ccccc4)CC3)ccc2n1 [Example 269, (S)-2-((1r,4S)-4-(2-ethoxyquinoline-6-sulfonamido)cyclohexanecarboxamido)-2-phenylethyl dihydrogen phosphate] was run?
A: Its IC50 is 25200 nM.

Q: For C[C@H]1CCCCN1C(=O)[C@H]1CC[C@H](NS(=O)(=O)c2ccc3c(C#N)c(-c4ccc(CCC(=O)O)cc4)n(C)c3c2)CC1 [Example 415, 3-(4-(3-cyano-1-methyl-6-(N-((1S,4r)-4-((S)-2-methylpiperidine-1-carbonyl)cyclohexyl)sulfamoyl)-1H-indol-2-yl)phenyl)propanoic acid], which IC50 is on record?
A: The IC50 was under 10 nM.

Q: How did the IC50 turn out when CC(C)OC(=O)c1ccc(NS(=O)(=O)c2ccc3[nH]c(Nc4ccc(N(C)C)cc4)nc3c2)cc1 [Example 551, isopropyl 4-(2-(4-(dimethylamino)phenylamino)-1H-benzo[d]imidazole-5-sulfonamido)benzoate] was run?
A: Its IC50 is 282 nM.

Q: With CC(C)OC(=O)c1ccc(NS(=O)(=O)c2ccc3nc(-c4ccc(C(C)C)cc4)[nH]c3c2)cc1 [Example 506, isopropyl 4-(2-(4-isopropylphenyl)-1H-benzo[d]imidazole-6-sulfonamido)benzoate] as the compound, how does the IC50 read?
A: The IC50 was 1950 nM.

Q: Which IC50 does the source give for CC1COCCN1C(=O)[C@H]1CC[C@H](NS(=O)(=O)c2ccc3c(C#N)c(C4CC4)n(C)c3c2)CC1 (some centres unmarked) [Example 401, 3-cyano-2-cyclopropyl-1-methyl-N-((1r,4r)-4-(3-methylmorpholine-4-carbonyl)cyclohexyl)-1H-indole-6-sulfonamide] here?
A: Its IC50 is 25 nM.

Q: How did the IC50 turn out when C[C@@H](NC(=O)[C@H]1CC[C@H](NS(=O)(=O)c2ccc3nc(N4CCN(C)CC4)ccc3c2)CC1)c1ccc(F)cc1 [Example 38, (1r,4R)-N-((R)-1-(4-fluorophenyl)ethyl)-4-(2-(4-methylpiperazin-1-yl)quinoline-6-sulfonamido)cyclohexanecarboxamide] was run?
A: Its IC50 is 50 nM.

Q: For COc1ccc(Nc2nc3cc(S(=O)(=O)Nc4ccc(C(=O)OC(C)C)cc4)ccc3[nH]2)cc1OC [Example 531, isopropyl 4-(2-(3,4-dimethoxyphenylamino)-1H-benzo[d]imidazole-5-sulfonamido)benzoate], which IC50 is on record?
A: Its IC50 is 248 nM.

Q: COCCOc1ccc2cc(S(=O)(=O)N[C@H]3CC[C@H](C(=O)N[C@H](C)c4ccc(F)cc4)CC3)ccc2n1 [Example 68, (1r,4R)-N-((R)-1-(4-fluorophenyl)ethyl)-4-(2-(2-methoxyethoxy)quinoline-6-sulfonamido)cyclohexanecarboxamide] was tested. Which IC50 did it give?
A: Its IC50 is 70 nM.

Q: With C[C@@H](NC(=O)[C@H]1CC[C@H](NS(=O)(=O)c2ccc3[nH]c(-c4cccnc4)cc3c2)CC1)c1ccccc1 [Example 284, (1r,4R)-N-((R)-1-phenylethyl)-4-(2-(pyridin-3-yl)-1H-indole-5-sulfonamido)cyclohexanecarboxamide] as the compound, how does the IC50 read?
A: Its IC50 is 14 nM.

Q: For O=C([C@H]1CC[C@H](NS(=O)(=O)c2ccc3c(c2)oc2ccccc23)CC1)N1CCNC[C@@H]1c1ccccc1 [Example 264, N-((1S,4r)-4-((S)-2-phenylpiperazine-1-carbonyl)cyclohexyl)dibenzo[b,d]furan-3-sulfonamide], which IC50 is on record?
A: The IC50 was 20 nM.

Q: For CN1CCN(c2ccc(-c3nc4cc(S(=O)(=O)N[C@H]5CC[C@H](c6nnc(C(C)(C)C)o6)CC5)ccc4[nH]3)cc2)CC1 [Example 10, N-((1r,4r)-4-(5-tert-butyl-1,3,4-oxadiazol-2-yl)cyclohexyl)-2-(4-(4-methylpiperazin-1-yl)phenyl)-1H-benzo[d]imidazole-5-sulfonamide], which IC50 is on record?
A: Its IC50 is 115 nM.

Q: With Cc1cc(-c2ccc3cc(S(=O)(=O)N[C@H]4CC[C@H](C(=O)N5CCNC[C@H]5c5ccccc5)CC4)ccc3n2)cc(C)n1 [Example 257, 2-(2,6-dimethylpyridin-4-yl)-N-((1R,4r)-4-((R)-2-phenylpiperazine-1-carbonyl)cyclohexyl)quinoline-6-sulfonamide] as the compound, how does the IC50 read?
A: Its IC50 is 50 nM.

Q: Cn1c(-c2ccc(CO)cc2)cc2ccc(S(=O)(=O)N[C@H]3CC[C@H](C(=O)N4CCOCC4)CC3)cc21 [Example 336, 2-(4-(hydroxymethyl)phenyl)-1-methyl-N-((1r,4r)-4-(morpholine-4-carbonyl)cyclohexyl)-1H-indole-6-sulfonamide] was tested. Which IC50 did it give?
A: The IC50 was 35 nM.

Q: O=C([C@H]1CC[C@H](NS(=O)(=O)c2ccc3c(c2)CCC3)CC1)N1CCNC[C@@H]1c1ccccc1 [Example 245, N-((1S,4r)-4-((S)-2-phenylpiperazine-1-carbonyl)cyclohexyl)-2,3-dihydro-1H-indene-5-sulfonamide] was tested. Which IC50 did it give?
A: The IC50 was 35 nM.
